biological target: recombinant human 15-PGDH (Homo sapiens (Human), UniProt P15428); assay: 15-PGDH enzyme inhibition test; assay type: biochemical; settings: 4 nM recombinant human 15-PGDH, 30 μM PGE2, 1 mM NAD+, fluorescence 340/440 nm after 60 min
Method: 15-PGDH Enzyme Inhibition Test
Test compounds and 4 nM recombinant human 15-PGDH (R&D systems) in 50 mM Tris-HCl (pH 8.0) containing 0.01% TWEEN 20 (Sigma) and 0.01% bovine gamma globulin (Sigma) were put into 384 Flat Bottom Black plates (Corning, 3820) and allowed to stand for 12 minutes at room temperature. Then, 30 μM PGE2 (Cayman chemical) and 1 mM NAD^+ (Sigma) were added to start reaction. Sixty minutes after the start of reaction, signals were measured at an excitation wavelength of 340 nm and a fluorescence emission wavelength of 440 nm using Synergy 2 (BioTeck). The intensity of the fluorescent signal obtained when an assay buffer was added in place of the test compounds and NAD^+ was defined as 100% and that obtained with the addition of NAD^+ was defined as 0%.

recombinant human 15-PGDH, sequence (P15428 whole entry): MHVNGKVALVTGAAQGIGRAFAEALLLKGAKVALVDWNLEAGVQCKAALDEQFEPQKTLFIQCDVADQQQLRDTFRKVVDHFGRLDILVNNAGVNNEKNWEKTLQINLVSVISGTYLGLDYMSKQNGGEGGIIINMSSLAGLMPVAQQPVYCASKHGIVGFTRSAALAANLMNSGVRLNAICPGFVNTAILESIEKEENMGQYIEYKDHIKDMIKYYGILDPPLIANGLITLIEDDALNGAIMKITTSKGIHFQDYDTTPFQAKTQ

IC50	Compound
< 3 nM	O=C1NCc2cc(-c3cccc4cc(C(=O)N5CCC(F)(F)CC5)ccc34)ncc21 [compound 39]
< 3 nM	O=C(c1ccc2c(-c3ccc4c(c3)CN(CC3CC3)C4=O)cccc2c1)N1CCC(F)(F)CC1 [compound 55]
< 3 nM	O=C(c1ccc2c(-c3ccn4c(=O)[nH]nc4c3)cccc2c1)N1CCC(F)(F)CC1 [compound 26]
< 3 nM	O=C(c1ccc2c(-c3ccc4c(=O)[nH]ccc4c3)cccc2c1)N1CCC(F)(F)CC1 [compound 110]
< 3 nM	O=C(c1ccc2c(-c3cc4cc[nH]c(=O)c4cn3)cccc2c1)N1CCC(F)(F)CC1 [compound 111]
< 3 nM	COCn1ncc2cc(-c3cccc4cc(C(=O)N5CCC(F)(F)CC5)ccc34)ccc2c1=O [compound 45]
< 3 nM	O=C1NCc2cc(-c3cccc4cc(C(=O)N5CCC(F)(F)CC5)ccc34)cnc21 [compound 82]
≥ 10 nM	CN1Cc2cc(-c3ccc4cc(C(=O)N5CCC(F)(F)CC5)ccc4c3)ccc2C1=O [compound 73]
< 3 nM	Cn1ccc2cc(-c3cccc4cc(C(=O)N5CCC(F)(F)CC5)cnc34)ccc2c1=O [compound 143]
< 3 nM	CN1Cc2cc(-c3cccc4cc(C(=O)N5CCCC5)ccc34)cnc2C1=O [compound 14]
< 3 nM	O=C(c1ccc2c(-c3ccn4c(=O)[nH]nc4c3)cccc2c1)N1CCCCC1 [compound 109]
< 3 nM	Cc1n[nH]c(=O)c2ccc(-c3cccc4cc(C(=O)N5CCC(F)(F)CC5)ccc34)cc12 [compound 83]
< 3 nM	CN1Cc2cc(-c3cccc4cc(C(=O)N5CCCCC5)cnc34)ccc2C1=O [compound 29]
< 3 nM	Cc1n[nH]c(=O)c2ccc(-c3cccc4cc(C(=O)N5CCC(F)(F)CC5)cnc34)cc12 [compound 165]
< 3 nM	O=C(c1ccc2c(-c3cnc4c(=O)[nH]ccc4c3)cccc2c1)N1CCC(F)(F)CC1 [compound 67]
< 3 nM	O=C(c1ccc2c(-c3cnc4c(=O)[nH]cnc4c3)cccc2c1)N1CCC(F)(F)CC1 [compound 128]
< 3 nM	CN1Cc2cc(-c3cccc4cc(C(=O)N5CCCC(C)(C)C5)ccc34)ccc2C1=O [compound 8]
< 3 nM	Cn1cnc2cc(-c3cccc4cc(C(=O)N5CCC(F)(F)CC5)ccc34)cnc2c1=O [compound 142]
< 3 nM	O=C(c1ccc2c(-c3ccc4c(c3)CN(CCO)C4=O)cccc2c1)N1CCC(F)(F)CC1 [compound 30]
< 3 nM	CN1Cc2cc(-c3cccc4cc(C(=O)N5CCC(F)(F)CC5)ccc34)cnc2C1=O [compound 78]

IC50	Compound
< 3 nM	CN1Cc2cc(-c3cccc4cc(C(=O)N5CCC(F)(F)CC5)ccc34)ncc2C1=O [compound 88]
< 3 nM	O=C(c1ccc2c(-c3ccc4c(ccc[n+]4[O-])c3)cccc2c1)N1CCC(F)(F)CC1 [compound 71]
< 3 nM	COC(=O)CN1Cc2cc(-c3cccc4cc(C(=O)N5CCC(F)(F)CC5)ccc34)ccc2C1=O [compound 44]
< 3 nM	O=C(c1ccc2ccc(-c3ccc4c(=O)[nH]ccc4c3)cc2c1)N1CCC(F)(F)CC1 [compound 139]
< 3 nM	O=C(c1cnc2c(-c3ccn4c(=O)ccnc4c3)cccc2c1)N1CCC(F)(F)CC1 [compound 160]
< 3 nM	O=C(c1ccc2c(N3CCc4c(cc[nH]c4=O)C3)cccc2c1)N1CCC(F)(F)CC1 [compound 5]
< 3 nM	CN1C(=O)c2ccc(-c3cccc4cc(C(=O)N5CCC(F)(F)CC5)ccc34)cc2C1(C)C [compound 27]
3 to 10 nM	Cn1ccc2cc(-c3c(F)ccc4cc(C(=O)N5CCC(F)(F)CC5)ccc34)ncc2c1=O [compound 157]
< 3 nM	CN1Cc2cc(-c3cccc4cc(C(=O)N5CCCC(F)(F)C5)ccc34)ccc2C1=O [compound 54]
≥ 10 nM	CN1Cc2cc(-c3cccc4nc(C(=O)N5CCCCC5)ccc34)ccc2C1=O [compound 70]
< 3 nM	Cn1ccc2cc(-c3cccc4cc(C(=O)N5CCC(F)(F)CC5)ccc34)ccc2c1=O [compound 116]
< 3 nM	Cn1c(=O)[nH]c(=O)c2ccc(-c3cccc4cc(C(=O)N5CCC(F)(F)CC5)cnc34)cc21 [compound 159]
3 to 10 nM	CN1Cc2cc(-c3nccc4cc(C(=O)N5CCC(F)(F)CC5)ccc34)ccc2C1=O [compound 156]
< 3 nM	CN1Cc2cc(-c3cccc4cc(C(=O)N5CCCCC5)ccc34)ccc2C1=O [compound 37]
< 3 nM	Cn1c(=O)[nH]c(=O)c2ccc(-c3cccc4cc(C(=O)N5CCC(F)(F)CC5)ccc34)cc21 [compound 33]
< 3 nM	CN1Cc2cc(-c3ccnc4cc(C(=O)N5CCC(F)(F)CC5)ccc34)ccc2C1=O [compound 42]
< 3 nM	Cn1cnc2cc(-c3cccc4cc(C(=O)N5CCC(F)(F)CC5)ccc34)ccc2c1=O [compound 38]
< 3 nM	O=C(c1ccc2c(-c3ccn4c(=O)ccnc4c3)cccc2c1)N1CCC(F)(F)CC1 [compound 18]
< 3 nM	O=C1NCc2nc(-c3cccc4cc(C(=O)N5CCC(F)(F)CC5)ccc34)ccc21 [compound 101]
< 3 nM	CC1CCN(C(=O)c2ccc3c(-c4cnc5c(c4)CN(C)C5=O)cccc3c2)CC1 [compound 125]

More lines, now with the values behind:

Compound	IC50
Cc1ccc2c(n1)CCN(c1cccc3cc(C(=O)N4CCCCC4)ccc13)C2 [compound 77]	< 3 nM
O=C(c1ccc2c(N3CCn4c(nn(CC(F)F)c4=O)C3)cccc2c1)N1CCC[C@H](C(F)(F)F)C1 [compound 93]	< 3 nM
O=C1NC(=O)N2CCN(c3cccc4cc(C(=O)N5CCCCC5)ccc34)CC12 (centres unmarked) [compound 7]	≥ 10 nM
C[C@H]1CCCN(C(=O)c2ccc3c(-c4cnc5c(=O)[nH]ccc5c4)cccc3c2)C1 [compound 46]	< 3 nM
CN1CC2CN(c3cccc4cc(C(=O)N5CCCCC5)ccc34)CCN2C1=O (centres unmarked) [compound 96]	3 to 10 nM
O=C(c1cnc2c(-c3cnc4c(=O)[nH]ncc4c3)cccc2c1)N1CCC(F)(F)CC1 [compound 140]	< 3 nM
Cn1nc2n(c1=O)CCN(c1cccc3cc(C(=O)N4CCCC5CC54)ccc13)C2 (centres unmarked) [compound 94]	< 3 nM
C[C@@H]1CCCN(C(=O)c2ccc3c(N4CCc5c(cc[nH]c5=O)C4)cccc3c2)C1 [compound 35]	< 3 nM
O=C(c1ccc2c(-c3ccc4c(=O)[nH]ncc4c3)cccc2c1)N1CC2(CCC2)C1 [compound 121]	< 3 nM
O=C(c1ccc2c(N3CCc4c(cc[nH]c4=O)C3)cccc2c1)N1CCC[C@@H](F)C1 [compound 23]	< 3 nM
Cn1ccc2c(c1=O)CCN(c1cccc3cc(C(=O)N4CCCCC4)ccc13)C2 [compound 107]	< 3 nM
C[C@H]1CCCN(C(=O)c2ccc3c(-c4ccc5c(=O)[nH]ncc5c4)cccc3c2)C1 [compound 81]	< 3 nM
Cn1nc2n(c1=O)CCN(c1cccc3cc(C(=O)N4CCCCC4)cnc13)C2 [compound 90]	3 to 10 nM
C[C@H]1CCCN(C(=O)c2ccc3c(N4CCc5ncccc5C4)cccc3c2)C1 [compound 2]	< 3 nM
C[C@H]1CCCN(C(=O)c2ccc3c(N4CCn5c(nn(C)c5=O)C4)cccc3c2)C1 [compound 103]	< 3 nM
O=C(c1ccc2c(N3CCc4ncccc4C3)cccc2c1)N1CCC[C@H](C(F)(F)F)C1 [compound 4]	< 3 nM
O=C(c1ccc2c(N3CCc4ncccc4C3)cccc2c1)N1CCCCC1 [compound 50]	< 3 nM

Compound	IC50
CC1CC2CN(c3cccc4cc(C(=O)N5CCCCC5)ccc34)CCN2C1=O (centres unmarked) [compound 28]	3 to 10 nM
Cn1ccc2cc(-c3cccc4cc(C(=O)N5CCC(F)(F)CC5)cnc34)cnc2c1=O [compound 146]	3 to 10 nM
O=C(c1cnc2c(-c3cnc4c(=O)[nH]ccc4c3)cccc2c1)N1CCC(F)(F)CC1 [compound 132]	< 3 nM
O=C(c1cnc2c(-c3cc4cc[nH]c(=O)c4cn3)cccc2c1)N1CCC(F)(F)CC1 [compound 133]	3 to 10 nM
C[C@H]1CCCN(C(=O)c2ccc3c(-c4ccc5c(=O)[nH]ccc5c4)cccc3c2)C1 [compound 31]	< 3 nM
Cn1cnc2c1CCN(c1cccc3cc(C(=O)N4CCCCC4)ccc13)C2 [compound 95]	3 to 10 nM
Cn1nc2n(c1=O)CCN(c1cccc3cc(C(=O)N4CCCCC4)ccc13)C2 [compound 74]	< 3 nM
Cn1nc2n(c1=O)CCN(c1nccc3cc(C(=O)N4CCC(F)(F)CC4)cc(F)c13)C2 [compound 106]	3 to 10 nM
CN1Cc2cc(-c3cccc4cc(C(=O)N5C[C@H]6CCC[C@H]6C5)ccc34)cnc2C1=O [compound 153]	< 3 nM
C[C@@H]1CCCN(C(=O)c2ccc3c(N4CCn5c(nn(C)c5=O)C4)cccc3c2)C1 [compound 34]	< 3 nM
C[C@H]1CCCN(C(=O)c2ccc3c(-c4cc5cc[nH]c(=O)c5cn4)cccc3c2)C1 [compound 47]	< 3 nM
O=C(c1ccc2c(-c3ccc4c(=O)[nH]ncc4c3)cccc2c1)N1CCCC1 [compound 80]	< 3 nM
O=C(c1ccc2c(N3CCc4c(cc[nH]c4=O)C3)cccc2c1)N1CCCCC1 [compound 62]	< 3 nM
O=C(c1ccc2c(-c3cc4cc[nH]c(=O)c4cn3)c(F)ccc2c1)N1CCC(F)(F)CC1 [compound 86]	< 3 nM
Cn1nc2n(c1=O)CCN(c1ncc(F)c3cc(C(=O)N4CCC(F)(F)CC4)ccc13)C2 [compound 20]	3 to 10 nM
Cn1ncc2cc(-c3cccc4cc(C(=O)N5CCC(F)(F)CC5)cnc34)cnc2c1=O [compound 145]	3 to 10 nM
Cn1nc2n(c1=O)CCN(c1cccc3cc(C(=O)N4CCC[C@H](C(F)(F)F)C4)ccc13)C2 [compound 3]	< 3 nM

From US12304897B2, “15-PGDH inhibitors” (KYORIN PHARMACEUTICAL CO., LTD., priority 2019, dated 2025)
